Measurements reported in article PMC12514971 (Protein science : a publication of the Protein Society, 2025).

Target: T1, ADAR1p150 (Zα domain) (Homo sapiens, UniProt P55265)
T1 sequence (P55265 133-199 limits assumed): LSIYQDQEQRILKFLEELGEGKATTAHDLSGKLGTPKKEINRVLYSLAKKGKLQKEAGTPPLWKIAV
Assay: MST titration
Assay type: binding

For O=C(O)c1cc(=O)c2c(OCC(O)COc3cccc4oc(C(=O)O)cc(=O)c34)cccc2o1 [cromolyn], the Kd was > 774 µM.
